Assay results taken from article PMC5750218, “Protein-inspired antibiotics active against vancomycin- and daptomycin-resistant bacteria” (Nature Communications, 2018).
Converted amounts (≈) assume the structure as drawn. Read-outs that look alike come from different tables or passages of the source.

Assays:
[1] = system: Methicillin-resistant S. aureus ATCC 43300; experiment: microbe, parasite or virus in culture; settings: for MIC: Staphylococcus aureus, ATCC43300|MRSA
Summary of the method: (§1)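 Reported values are MICs read as the lowest concentration showing no visible growth after 24 h at 37 °C. Compounds were tested by twofold broth microdilution in Mueller Hinton broth over 8 to 0.003 µg mL^−1.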

[2] = system: Vancomycin-resistant S. aureus NARSA VRS4; experiment: microbe, parasite or virus in culture; format: cell-based, Staphylococcus aureus
[3] = system: Multi-drug-resistant S. pneumoniae ATCC 700677; experiment: microbe, parasite or virus in culture; settings: for MIC MDR S.P.: ATCC 700677
Summary of the method: as §1

[4] = system: Vancomycin-intermediate S. aureus NRS1; experiment: microbe, parasite or virus in culture; settings: for MIC VISA: Vancomycin-intermediate NRS1
Summary of the method: as §1

[5] = Cytotoxicity MTT assay; format: cell-based, human; settings: human
[6] = Cytotoxicity MTT assay; format: cell-based, human; settings: human; remark: listed apart in the source
Summary of the method: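 HepG2 and HEK293 cells, 1.5 × 10^4 per well in DMEM with 1% FBS, were allowed to attach for 24 h, then exposed 24 h at 37 °C to compounds at 100 µM to 0.046 µM in threefold steps. MTT (0.4 mg mL^−1) was added for 2 h, and formazan in DMSO was read at 570 nm. Viability is given as percent of control, corrected for a positive control.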

[7] = system: Vancomycin-resistant (VanA) Enterococcus faecium ATCC 51559; experiment: microbe, parasite or virus in culture
Summary of the method: as §1

[8] = system: S. aureus ATCC 43300; experiment: Membrane permeability assay (propidium iodide); format: cell-based, Staphylococcus aureus
Experimental: To evaluate the ability of the compounds to disrupt the cytoplasmic membrane integrity, the membrane impermeable fluorescent DNA intercalating dye propidium iodide (PI) was used. Early exponential phase cells were pelleted and washed twice in 10 mM HEPES buffer (pH 7.4) containing 50 µg mL^−1 of CaCl2 and 5 mM glucose, and then re-suspended in the same buffer (4 × 10^8 CFU mL^−1). Cell suspension was added to a 384-well black walled polystyrene plate (Corning, CLS3573) containing compounds, giving a final concentration of 16 µg mL^−1. After 1 h incubation at 37 °C, 5 µg mL^−1 of PI was added and fluorescence was monitored for 90 min using a Tecan Infinite® m1000 Pro Multi-mode reader (excitation/emission 535/620 nm). Data were corrected by subtraction of fluorescence signal arising from untreated cells in the presence of PI. […] Each sample was tested in quadruplicate and independent assays were performed twice showing similar results. Data was analysed and presented using Prism software.

## CCCCCCCCCCC(=O)N[C@@H](CCCCN)C(=O)N[C@@H](CCCCN)C(=O)N[C@@H](CCCCN)C(=O)N[C@@H](CCCCNC(=O)[C@H]1NC(=O)[C@H]2NC(=O)[C@H](NC(=O)[C@@H]3NC(=O)[C@H](CC(N)=O)NC(=O)[C@H](NC(=O)[C@@H](CC(C)C)NC)[C@H](O)c4ccc(c(Cl)c4)Oc4cc3cc(c4O[C@@H]3O[C@H](CO)[C@@H](O)[C@H](O)[C@H]3O[C@H]3C[C@](C)(N)[C@H](O)[C@H](C)O3)Oc3ccc(cc3Cl)[C@H]2O)c2ccc(O)c(c2)-c2c(O)cc(O)cc21)C(=O)O [Compound 18, nC10CO-KKK-K(Vancomycin)-OH]
[1]; ATCC 43300, 24 h
  MIC MRSA: 0.045 µg/mL (≈ 0.0211 µM)
[2]; Vancomycin-resistant NARSA VRS4
  MIC VRSA: 0.5 µg/mL (≈ 0.235 µM)
[3]
  MIC MDR S.P.: 0.06 µg/mL (≈ 0.0282 µM)
[4]
  MIC VISA: 0.5 µg/mL (≈ 0.235 µM)
[5]
  CC50 at 24 h: 106 µM
[6]
  CC50 at 24 h: 108 µM

## CNC(=O)[C@H](CCCCNC(=O)[C@H]1NC(=O)[C@H]2NC(=O)[C@H](NC(=O)[C@@H]3NC(=O)[C@H](CC(N)=O)NC(=O)[C@H](NC(=O)[C@@H](CC(C)C)NC)[C@H](O)c4ccc(c(Cl)c4)Oc4cc3cc(c4O[C@@H]3O[C@H](CO)[C@@H](O)[C@H](O)[C@H]3O[C@H]3C[C@](C)(N)[C@H](O)[C@H](C)O3)Oc3ccc(cc3Cl)[C@H]2O)c2ccc(O)c(c2)-c2c(O)cc(O)cc21)NC(=O)[C@H](CCCCN)NC(=O)[C@H](CCCCN)NC(=O)[C@H](CCCCNC(=O)c1ccc(Oc2ccccc2)cc1)NC(=O)c1ccc(Oc2ccccc2)cc1 [Compound 24, POB2K-KK-K(Vancomycin)-NHMe]
[1]; ATCC 43300
  MIC S. aureus ATCC 43300 MRSA, NBS: ≤ 0.016 µg/mL
  MIC S. aureus ATCC 43300 MRSA, PP: 1 µg/mL (≈ 0.422 µM)
  MIC S. aureus ATCC 43300 MRSA, PS: 2 µg/mL (≈ 0.845 µM)
  MIC S. aureus ATCC 43300 MRSA, PS+P-80: ≤ 0.016 µg/mL
[2]; S. aureus NARSA VRS4
  MIC VRSA: 0.08 µg/mL (≈ 0.0338 µM)
[3]
  MIC MDR S.P.: <0.003 µg/mL
[4]
  MIC VISA: 0.125 µg/mL (≈ 0.0528 µM)
[7]; ATCC 51559
  MIC VRE: 0.5 µg/mL (≈ 0.211 µM)
[5]
  CC50 at 24 h: 100 µM
[6]
  CC50 at 24 h: 140 µM
[8]
  Membrane permeabilisation (propidium iodide fluorescence): comparable fluorescence intensity to oritavancin

## CN[C@H](CC(C)C)C(=O)N[C@H]1C(=O)N[C@@H](CC(N)=O)C(=O)N[C@H]2C(=O)N[C@H]3C(=O)N[C@H](C(=O)N[C@H](C(=O)O)c4cc(O)cc(O)c4-c4cc3ccc4O)[C@H](O[C@H]3C[C@](C)(N)[C@@H](O)[C@H](C)O3)c3ccc(c(Cl)c3)Oc3cc2cc(c3O[C@@H]2O[C@H](CO)[C@@H](O)[C@H](O)[C@H]2O[C@H]2C[C@](C)(NCc3ccc(-c4ccc(Cl)cc4)cc3)[C@@H](O)[C@H](C)O2)Oc2ccc(cc2Cl)[C@H]1O [Compound 5, Oritavancin, reference compound]
[1]; 24 h, read-out: MIC MRSA, S. aureus ATCC 43300, NBS plates, MHB, 24 h, substance alone
  MIC: 0.06 µg/mL (≈ 0.0335 µM)
[1]; read-out: MIC S. aureus ATCC 43300 MRSA, NBS, non-binding surface plate
  MIC: ≤ 0.016 µg/mL
[1]; read-out: MIC S. aureus ATCC 43300 MRSA, PP, polypropylene plate
  MIC: 1 µg/mL (≈ 0.558 µM)
[1]; read-out: MIC S. aureus ATCC 43300 MRSA, PS+P-80, polystyrene plate with 0.002% polysorbate-80
  MIC: ≤ 0.016 µg/mL
[1]; read-out: MIC S. aureus ATCC 43300 MRSA, PS, polystyrene plate, no polysorbate-80
  MIC: 1 µg/mL (≈ 0.558 µM)
[2]; Staphylococcus aureus, VRSA, read-out: MIC VRSA
  MIC: 0.125 µg/mL (≈ 0.0697 µM)
[3]; Streptococcus pneumoniae, ATCC700677, read-out: MIC MDR S.P.
  MIC: 0.06 µg/mL (≈ 0.0335 µM)
[4]; Staphylococcus aureus, NRS1 / VISA, read-out: MIC VISA
  MIC: 1 µg/mL (≈ 0.558 µM)
[7]; Enterococcus faecium, ATCC51559 / VRE, read-out: MIC VRE
  MIC: 0.125 µg/mL (≈ 0.0697 µM)
[5]; 24 h, MTT, 1% FBS, read-out: Cytotoxicity CC50 HepG2
  CC50 at 24 h: 25 µM
[6]; 24 h, MTT, 1% FBS, read-out: Cytotoxicity CC50 HEK293
  CC50 at 24 h: 29 µM
